From patent US20080138403A1, “PHARMACEUTICAL DOSAGE FORMS OF OXCARBAZEPINE” (Sun Pharmaceutical Industries Ltd., priority 2006, published 2008)

Assays:
[1] = cited from earlier work
[2] = particle size by Malvern laser diffraction; type: physicochemical
Method: The particle size of oxcarbazepine may be measured using laser light diffraction technique based instrument such as a Malvern Mastersizer Microplus apparatus. Other known methods of measuring particle size may also be used. The particle size distribution of oxcarbazepine was checked after subjecting the slurry of oxcarbazepine and the hydrophilic polymer in a solvent, to mixing in a colloid mill. The particle size was determined by Malvern laser diffraction technique. The particles were dispersed in an aqueous dispersion medium of Tween 20 (0.1 ml/litre).

[3] = Example 1 slurry after mixing in colloid mill, dispersed in aqueous Tween 20
[4] = oxcarbazepine used for the slurry of Example 2

For `NC(=O)N1c2ccccc2CC(=O)c2ccccc21` [oxcarbazepine, 10,11-Dihydro-10-oxo-5H-dibenz [b,f]azepine-5-carboxamide], the solubility in water [1] is given as “practically insoluble”, the “Particle size D (v, 0.1) 10% particles undersized” value [2, 3] is given as 6.93 μm and the “Particle size D (v, 0.5) 50% particles undersized” value [2, 3] is given as 20.56 μm. The “Particle size D (v, 0.91) 90% particles undersized” value [2, 3] was 45.97 μm, the “median particle size D50” value [2, 4] was 24.91 μm and the “particle size D10” value [2, 4] was 6.59 μm. For the same compound, the “particle size D90” value [2, 4] was 63.31 μm.
